Experimental data reported in the NIST ThermoML archive (doi:10.1016/j.jct.2014.09.020).
± gives the expanded uncertainty stated by the source.

Legend:
[1] = Liquid; for speed of sound: Frequency=4 MHz, Single path-length method; for mass density: Vibrating tube method
[2] = xn = mol fraction of the nth substance listed; conditions: Liquid, x1 = 1; for speed of sound: Frequency=4 MHz, Single path-length method; for mass density: Vibrating tube method

c1ccc2c(c1)CCCC2 [1,2,3,4-tetrahydronaphthalene]
speed of sound ([1]; 313.15 K, 100 kPa): 1413 ± 2 m/s | mass density ([1]; 313.15 K, 100 kPa): 952.93 ± 1.2 kg/m3 | speed of sound ([1]; 313.15 K, 5000 kPa): 1434 ± 3 m/s | speed of sound ([1]; 313.15 K, 10000 kPa): 1455 ± 3 m/s | speed of sound ([1]; 313.15 K, 15000 kPa): 1475 ± 3 m/s | speed of sound ([1]; 313.15 K, 20000 kPa): 1495 ± 3 m/s | speed of sound ([1]; 313.15 K, 25000 kPa): 1513 ± 3 m/s | speed of sound ([1]; 323.15 K, 100 kPa): 1374 ± 2 m/s | mass density ([1]; 323.15 K, 100 kPa): 944.99 ± 1.2 kg/m3 | speed of sound ([1]; 323.15 K, 5000 kPa): 1397 ± 3 m/s | speed of sound ([1]; 323.15 K, 10000 kPa): 1419 ± 3 m/s | speed of sound ([1]; 323.15 K, 15000 kPa): 1439 ± 3 m/s | speed of sound ([1]; 323.15 K, 20000 kPa): 1459 ± 3 m/s | speed of sound ([1]; 323.15 K, 25000 kPa): 1480 ± 3 m/s | speed of sound ([1]; 333.15 K, 100 kPa): 1335 ± 2 m/s | mass density ([1]; 333.15 K, 100 kPa): 937.04 ± 1.2 kg/m3 | speed of sound ([1]; 333.15 K, 5000 kPa): 1359 ± 3 m/s | speed of sound ([1]; 333.15 K, 10000 kPa): 1383 ± 3 m/s | speed of sound ([1]; 333.15 K, 15000 kPa): 1402 ± 3 m/s | speed of sound ([1]; 333.15 K, 20000 kPa): 1425 ± 3 m/s | speed of sound ([1]; 333.15 K, 25000 kPa): 1445 ± 3 m/s

CCCCCCCCCC [decane]
speed of sound ([1]; 313.15 K, 100 kPa): 1177 ± 2 m/s | mass density ([1]; 313.15 K, 100 kPa): 714.87 ± 1 kg/m3 | speed of sound ([1]; 313.15 K, 5000 kPa): 1209 ± 2 m/s | speed of sound ([1]; 313.15 K, 10000 kPa): 1243 ± 2 m/s | speed of sound ([1]; 313.15 K, 15000 kPa): 1274 ± 2 m/s | speed of sound ([1]; 313.15 K, 20000 kPa): 1303 ± 2 m/s | speed of sound ([1]; 313.15 K, 25000 kPa): 1327 ± 2 m/s | speed of sound ([1]; 323.15 K, 100 kPa): 1139 ± 2 m/s | mass density ([1]; 323.15 K, 100 kPa): 707.2 ± 1 kg/m3 | speed of sound ([1]; 323.15 K, 5000 kPa): 1174 ± 2 m/s | speed of sound ([1]; 323.15 K, 10000 kPa): 1207 ± 2 m/s | speed of sound ([1]; 323.15 K, 15000 kPa): 1238 ± 2 m/s | speed of sound ([1]; 323.15 K, 20000 kPa): 1269 ± 2 m/s | speed of sound ([1]; 323.15 K, 25000 kPa): 1296 ± 2 m/s | speed of sound ([1]; 333.15 K, 100 kPa): 1099 ± 2 m/s | mass density ([1]; 333.15 K, 100 kPa): 699.47 ± 1 kg/m3 | speed of sound ([1]; 333.15 K, 5000 kPa): 1134 ± 2 m/s | speed of sound ([1]; 333.15 K, 10000 kPa): 1171 ± 2 m/s | speed of sound ([1]; 333.15 K, 15000 kPa): 1204 ± 2 m/s | speed of sound ([1]; 333.15 K, 20000 kPa): 1234 ± 2 m/s | speed of sound ([1]; 333.15 K, 25000 kPa): 1264 ± 2 m/s

CCCCCCCCCC [decane] + c1ccc2c(c1)CCCC2
speed of sound ([2]; 313.15 K, 100 kPa): 1177 ± 2 m/s | mass density ([2]; 313.15 K, 100 kPa): 714.87 ± 1 kg/m3 | speed of sound ([2]; 313.15 K, 5000 kPa): 1209 ± 2 m/s | speed of sound ([2]; 313.15 K, 10000 kPa): 1243 ± 2 m/s | speed of sound ([2]; 313.15 K, 15000 kPa): 1274 ± 2 m/s | speed of sound ([2]; 313.15 K, 20000 kPa): 1303 ± 2 m/s | speed of sound ([2]; 313.15 K, 25000 kPa): 1327 ± 2 m/s | speed of sound ([2]; 323.15 K, 100 kPa): 1139 ± 2 m/s | mass density ([2]; 323.15 K, 100 kPa): 707.2 ± 1 kg/m3 | speed of sound ([2]; 323.15 K, 5000 kPa): 1174 ± 2 m/s | speed of sound ([2]; 323.15 K, 10000 kPa): 1207 ± 2 m/s | speed of sound ([2]; 323.15 K, 15000 kPa): 1238 ± 2 m/s | speed of sound ([2]; 323.15 K, 20000 kPa): 1269 ± 2 m/s | speed of sound ([2]; 323.15 K, 25000 kPa): 1296 ± 2 m/s | speed of sound ([2]; 333.15 K, 100 kPa): 1099 ± 2 m/s | mass density ([2]; 333.15 K, 100 kPa): 699.47 ± 1 kg/m3 | speed of sound ([2]; 333.15 K, 5000 kPa): 1134 ± 2 m/s | speed of sound ([2]; 333.15 K, 10000 kPa): 1171 ± 2 m/s | speed of sound ([2]; 333.15 K, 15000 kPa): 1204 ± 2 m/s | speed of sound ([2]; 333.15 K, 20000 kPa): 1234 ± 2 m/s | speed of sound ([2]; 333.15 K, 25000 kPa): 1264 ± 2 m/s

CCCCCCCCCCCCCCCC [hexadecane]
speed of sound ([1]; 313.15 K, 100 kPa): 1283 ± 2 m/s | mass density ([1]; 313.15 K, 100 kPa): 759.55 ± 1 kg/m3 | speed of sound ([1]; 313.15 K, 5000 kPa): 1311 ± 2 m/s | speed of sound ([1]; 313.15 K, 10000 kPa): 1340 ± 2 m/s | speed of sound ([1]; 313.15 K, 15000 kPa): 1366 ± 2 m/s | speed of sound ([1]; 313.15 K, 20000 kPa): 1391 ± 2 m/s | speed of sound ([1]; 313.15 K, 25000 kPa): 1416 ± 2 m/s | speed of sound ([1]; 323.15 K, 100 kPa): 1248 ± 2 m/s | mass density ([1]; 323.15 K, 100 kPa): 752.64 ± 1 kg/m3 | speed of sound ([1]; 323.15 K, 5000 kPa): 1278 ± 2 m/s | speed of sound ([1]; 323.15 K, 10000 kPa): 1307 ± 2 m/s | speed of sound ([1]; 323.15 K, 15000 kPa): 1335 ± 2 m/s | speed of sound ([1]; 323.15 K, 20000 kPa): 1361 ± 2 m/s | speed of sound ([1]; 323.15 K, 25000 kPa): 1387 ± 2 m/s | speed of sound ([1]; 333.15 K, 100 kPa): 1212 ± 2 m/s | mass density ([1]; 333.15 K, 100 kPa): 745.73 ± 1 kg/m3 | speed of sound ([1]; 333.15 K, 5000 kPa): 1242 ± 2 m/s | speed of sound ([1]; 333.15 K, 10000 kPa): 1273 ± 2 m/s | speed of sound ([1]; 333.15 K, 15000 kPa): 1301 ± 2 m/s | speed of sound ([1]; 333.15 K, 20000 kPa): 1328 ± 2 m/s | speed of sound ([1]; 333.15 K, 25000 kPa): 1354 ± 2 m/s

CCCCCCCCCCCCCCCC [hexadecane] + c1ccc2c(c1)CCCC2
speed of sound ([2]; 313.15 K, 100 kPa): 1283 ± 2 m/s | mass density ([2]; 313.15 K, 100 kPa): 759.55 ± 1 kg/m3 | speed of sound ([2]; 313.15 K, 5000 kPa): 1311 ± 2 m/s | speed of sound ([2]; 313.15 K, 10000 kPa): 1340 ± 2 m/s | speed of sound ([2]; 313.15 K, 15000 kPa): 1366 ± 2 m/s | speed of sound ([2]; 313.15 K, 20000 kPa): 1391 ± 2 m/s | speed of sound ([2]; 313.15 K, 25000 kPa): 1416 ± 2 m/s | speed of sound ([2]; 323.15 K, 100 kPa): 1248 ± 2 m/s | mass density ([2]; 323.15 K, 100 kPa): 752.64 ± 1 kg/m3 | speed of sound ([2]; 323.15 K, 5000 kPa): 1278 ± 2 m/s | speed of sound ([2]; 323.15 K, 10000 kPa): 1307 ± 2 m/s | speed of sound ([2]; 323.15 K, 15000 kPa): 1335 ± 2 m/s | speed of sound ([2]; 323.15 K, 20000 kPa): 1361 ± 2 m/s | speed of sound ([2]; 323.15 K, 25000 kPa): 1387 ± 2 m/s | speed of sound ([2]; 333.15 K, 100 kPa): 1212 ± 2 m/s | mass density ([2]; 333.15 K, 100 kPa): 745.73 ± 1 kg/m3 | speed of sound ([2]; 333.15 K, 5000 kPa): 1242 ± 2 m/s | speed of sound ([2]; 333.15 K, 10000 kPa): 1273 ± 2 m/s | speed of sound ([2]; 333.15 K, 15000 kPa): 1301 ± 2 m/s | speed of sound ([2]; 333.15 K, 20000 kPa): 1328 ± 2 m/s | speed of sound ([2]; 333.15 K, 25000 kPa): 1354 ± 2 m/s
